Reference: ChEMBL document CHEMBL1201862, “PubChem BioAssay data set” (2004)
Activity calls are given as the source filed them.

Experiments:
[1] = molecular target: T1, Fatty acid synthase (Homo sapiens, UniProt P49327); experiment: inhibition of human FAS-TE enzyme activity – biochemical, endpoint fluorescence intensity, uHTS hits, dose response (AID 624327); type: functional;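 note: fluorescence from hydrolysis of an O-methyl fluorescein acyl ester substrate by the enzyme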
[2] = molecular target: T1, Fatty acid synthase; experiment: inhibition of human FAS-TE enzyme activity – biochemical, kinetic fluorescence intensity, dose response (AID 624326); type: functional;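 note: rate of fluorescence rise from hydrolysis of a fluorogenic O-methyl fluorescein ester substrate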
[3] = molecular target: Genome polyprotein (dengue virus type 2, UniProt P29990); experiment: flavivirus cap methylation enzyme inhibition – biochemical, confirmation dose response, primary screen (AID 588689); type: functional
Chain of Genome polyprotein (P29990 2492-3391 limits assumed): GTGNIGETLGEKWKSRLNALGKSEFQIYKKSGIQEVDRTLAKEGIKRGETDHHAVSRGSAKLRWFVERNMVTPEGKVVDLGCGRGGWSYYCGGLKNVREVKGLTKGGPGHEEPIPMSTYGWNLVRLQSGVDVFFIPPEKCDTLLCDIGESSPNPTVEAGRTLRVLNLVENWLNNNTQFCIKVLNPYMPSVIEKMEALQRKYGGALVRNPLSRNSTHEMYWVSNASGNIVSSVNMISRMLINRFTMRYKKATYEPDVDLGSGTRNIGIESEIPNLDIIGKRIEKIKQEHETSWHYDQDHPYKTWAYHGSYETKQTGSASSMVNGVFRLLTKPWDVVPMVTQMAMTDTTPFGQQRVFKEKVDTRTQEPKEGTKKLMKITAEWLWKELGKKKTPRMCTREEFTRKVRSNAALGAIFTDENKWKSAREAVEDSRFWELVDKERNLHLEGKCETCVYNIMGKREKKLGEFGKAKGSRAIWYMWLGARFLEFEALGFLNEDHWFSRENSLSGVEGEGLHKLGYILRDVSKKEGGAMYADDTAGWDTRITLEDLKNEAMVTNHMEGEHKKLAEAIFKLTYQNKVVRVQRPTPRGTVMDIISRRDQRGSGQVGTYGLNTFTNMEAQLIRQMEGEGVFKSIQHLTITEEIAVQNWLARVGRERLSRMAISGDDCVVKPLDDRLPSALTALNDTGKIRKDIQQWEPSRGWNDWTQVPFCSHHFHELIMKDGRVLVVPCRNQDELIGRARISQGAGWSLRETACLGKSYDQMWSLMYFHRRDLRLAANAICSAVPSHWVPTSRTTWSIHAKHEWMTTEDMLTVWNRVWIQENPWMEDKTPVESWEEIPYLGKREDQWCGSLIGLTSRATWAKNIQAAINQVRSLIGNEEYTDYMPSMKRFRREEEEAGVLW

[4] = P. falciparum Dd2 growth inhibitors, dose response, SYBR Green, cherry-picked samples (AID 1159567); type: functional, cell-based
[5] = molecular target: T2, Calpain-2 catalytic subunit (Sus scrofa, UniProt P43367); experiment: m-calpain protease blockers, concentration series – biochemical, fluorogenic peptide substrate, dose response (AID 1420); type: functional
T2 sequence (P43367 whole entry): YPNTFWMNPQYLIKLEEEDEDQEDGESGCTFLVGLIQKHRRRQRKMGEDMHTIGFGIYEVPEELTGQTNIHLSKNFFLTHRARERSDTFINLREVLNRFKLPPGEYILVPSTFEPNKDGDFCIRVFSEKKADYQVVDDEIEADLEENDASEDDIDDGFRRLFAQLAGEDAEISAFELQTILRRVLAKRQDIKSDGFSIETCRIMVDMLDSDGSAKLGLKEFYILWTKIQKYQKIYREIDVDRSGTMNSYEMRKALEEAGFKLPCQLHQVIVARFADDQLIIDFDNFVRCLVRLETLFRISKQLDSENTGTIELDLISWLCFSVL

[6] = intracellular Trypanosoma cruzi inhibitors in host cells – cell-based, plate reader, cherry-pick samples, set 3, dose response (AID 651818); type: functional;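 note: compounds incubated with infected cells for about four days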
[7] = molecular target: T3, Polyadenylate-binding protein 1 (Homo sapiens, UniProt P11940); experiment: MLLE domain peptide-binding blockers, IC50 – biochemical, fluorescence polarization, FITC-PAM2 peptide, dose response (AID 602259); type: functional; settings: read-out: IC50_Mean
T3 sequence (P11940 whole entry, the tested form may be a part): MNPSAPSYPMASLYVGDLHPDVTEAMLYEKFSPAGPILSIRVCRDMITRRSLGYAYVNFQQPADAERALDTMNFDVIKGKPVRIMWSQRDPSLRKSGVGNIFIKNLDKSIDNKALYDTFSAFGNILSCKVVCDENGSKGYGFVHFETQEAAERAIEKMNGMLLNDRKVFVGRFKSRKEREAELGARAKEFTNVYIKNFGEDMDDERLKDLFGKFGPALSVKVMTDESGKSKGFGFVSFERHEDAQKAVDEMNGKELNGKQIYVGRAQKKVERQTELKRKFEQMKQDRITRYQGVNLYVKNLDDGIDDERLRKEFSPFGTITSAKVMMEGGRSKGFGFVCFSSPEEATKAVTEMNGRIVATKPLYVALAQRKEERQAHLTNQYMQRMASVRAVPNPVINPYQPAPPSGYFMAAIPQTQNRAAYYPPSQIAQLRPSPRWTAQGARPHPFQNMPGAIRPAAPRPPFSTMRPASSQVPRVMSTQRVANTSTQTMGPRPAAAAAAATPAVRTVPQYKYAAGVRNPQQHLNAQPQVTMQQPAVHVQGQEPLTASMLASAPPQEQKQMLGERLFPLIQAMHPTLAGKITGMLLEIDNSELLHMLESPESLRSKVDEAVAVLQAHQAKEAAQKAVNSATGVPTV

[8] = molecular target: T3, Polyadenylate-binding protein 1; experiment: MLLE binding blockers, Cy5 peptide tracer – biochemical, fluorescence polarization, Cy5-PAM2 peptide, secondary, miRNA deadenylation inhibitor project, dose response (AID 602260); type: functional; settings: read-out: IC50_Mean
[9] = tested on: Streptococcus sp. 'group A'; experiment: Streptococcus pyogenes SK(-)GAS viability under kanamycin – luminescence, BacTiterGlo, confirmation, counter-screen for streptokinase expression inhibitor project, dose response (AID 1900); type: functional, organism-based
[10] = tested on: Streptococcus; experiment: GAS UMAA2166 growth inhibition – luminescence, BacTiterGlo, counter-screen for streptokinase expression inhibitor project, dose response (AID 1915); type: functional, organism-based;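 note: potency for reduction of bacterial viability or growth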
[11] = molecular target: T4, Streptokinase A (Streptococcus pyogenes serotype M1, UniProt P10520); experiment: viability-normalized secreted streptokinase activity reduction – plasminogen activation absorbance, OD405, dose response (AID 1914); type: functional, Streptococcus pyogenes M1 GAS;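 note: secreted streptokinase activity via plasminogen activation per viability signal from cell pellet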
T4 sequence (P10520 whole entry): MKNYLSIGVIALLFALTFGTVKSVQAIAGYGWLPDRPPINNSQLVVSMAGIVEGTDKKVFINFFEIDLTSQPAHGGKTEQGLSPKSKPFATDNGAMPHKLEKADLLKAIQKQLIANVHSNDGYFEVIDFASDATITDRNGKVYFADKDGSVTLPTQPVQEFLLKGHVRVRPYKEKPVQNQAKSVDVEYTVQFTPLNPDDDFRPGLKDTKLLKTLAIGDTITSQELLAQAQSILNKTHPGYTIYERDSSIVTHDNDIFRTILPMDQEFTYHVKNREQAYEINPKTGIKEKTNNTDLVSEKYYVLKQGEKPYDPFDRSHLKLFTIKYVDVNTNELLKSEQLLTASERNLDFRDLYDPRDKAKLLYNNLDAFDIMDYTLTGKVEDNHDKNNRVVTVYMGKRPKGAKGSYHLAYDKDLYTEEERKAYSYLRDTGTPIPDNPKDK

[12] = molecular target: Induced myeloid leukemia cell differentiation protein Mcl-1 (Homo sapiens, UniProt Q07820); type: functional
Chain of Induced myeloid leukemia cell differentiation protein Mcl-1 (Q07820 whole entry): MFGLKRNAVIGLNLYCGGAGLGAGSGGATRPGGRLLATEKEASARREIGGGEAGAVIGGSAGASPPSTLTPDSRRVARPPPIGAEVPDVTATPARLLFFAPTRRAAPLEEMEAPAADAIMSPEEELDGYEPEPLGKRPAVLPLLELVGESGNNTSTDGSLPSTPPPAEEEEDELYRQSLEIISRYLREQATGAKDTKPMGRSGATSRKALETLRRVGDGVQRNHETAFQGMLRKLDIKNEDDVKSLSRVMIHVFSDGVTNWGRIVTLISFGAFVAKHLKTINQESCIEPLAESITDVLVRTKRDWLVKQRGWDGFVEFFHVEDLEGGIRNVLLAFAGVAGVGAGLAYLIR

[13] = molecular target: T5, Ubiquitin-conjugating enzyme E2 N (Homo sapiens, UniProt P61088); type: functional;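 note: Dose-response confirmation in a TR-FRET assay detecting UBC13-driven polyubiquitin chain formation, inhibition measured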
T5 sequence (P61088 whole entry): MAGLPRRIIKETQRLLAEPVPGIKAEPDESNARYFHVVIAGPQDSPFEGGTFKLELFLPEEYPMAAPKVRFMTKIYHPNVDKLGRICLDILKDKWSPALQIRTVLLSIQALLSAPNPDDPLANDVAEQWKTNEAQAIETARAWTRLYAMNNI

[14] = HIV-1 AD8 envelope cell-cell fusion blockers – cherry-pick, dose response (AID 652062); type: functional, cell-based;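 note: luciferase signal from cell-cell fusion driven by HIV-1 clade B AD8 Env; potency is for inhibitors of fusion seen as a drop in luminescence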
[15] = viability of PTEN-deleted HCT116 cells – cell-based, HCT116 PTEN knockout, dose response (AID 1047); type: functional;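 note: HCT116 colon tumor cells with PTEN knocked out; cells exposed to compound for 60 hours before readout; potency for loss of cell viability measured by luminescence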
[16] = viability of HCT116 lacking mutant beta-catenin – cell-based, human colon tumor, dose response (AID 1045); type: functional;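 note: HCT116 colon tumor cells with beta catenin knocked out; cells exposed to compound for 60 hours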
[17] = cells; type: functional, cell-based
[18] = cells; type: functional, cell-based; remark: listed apart in the source

T1 sequence (P49327 whole entry): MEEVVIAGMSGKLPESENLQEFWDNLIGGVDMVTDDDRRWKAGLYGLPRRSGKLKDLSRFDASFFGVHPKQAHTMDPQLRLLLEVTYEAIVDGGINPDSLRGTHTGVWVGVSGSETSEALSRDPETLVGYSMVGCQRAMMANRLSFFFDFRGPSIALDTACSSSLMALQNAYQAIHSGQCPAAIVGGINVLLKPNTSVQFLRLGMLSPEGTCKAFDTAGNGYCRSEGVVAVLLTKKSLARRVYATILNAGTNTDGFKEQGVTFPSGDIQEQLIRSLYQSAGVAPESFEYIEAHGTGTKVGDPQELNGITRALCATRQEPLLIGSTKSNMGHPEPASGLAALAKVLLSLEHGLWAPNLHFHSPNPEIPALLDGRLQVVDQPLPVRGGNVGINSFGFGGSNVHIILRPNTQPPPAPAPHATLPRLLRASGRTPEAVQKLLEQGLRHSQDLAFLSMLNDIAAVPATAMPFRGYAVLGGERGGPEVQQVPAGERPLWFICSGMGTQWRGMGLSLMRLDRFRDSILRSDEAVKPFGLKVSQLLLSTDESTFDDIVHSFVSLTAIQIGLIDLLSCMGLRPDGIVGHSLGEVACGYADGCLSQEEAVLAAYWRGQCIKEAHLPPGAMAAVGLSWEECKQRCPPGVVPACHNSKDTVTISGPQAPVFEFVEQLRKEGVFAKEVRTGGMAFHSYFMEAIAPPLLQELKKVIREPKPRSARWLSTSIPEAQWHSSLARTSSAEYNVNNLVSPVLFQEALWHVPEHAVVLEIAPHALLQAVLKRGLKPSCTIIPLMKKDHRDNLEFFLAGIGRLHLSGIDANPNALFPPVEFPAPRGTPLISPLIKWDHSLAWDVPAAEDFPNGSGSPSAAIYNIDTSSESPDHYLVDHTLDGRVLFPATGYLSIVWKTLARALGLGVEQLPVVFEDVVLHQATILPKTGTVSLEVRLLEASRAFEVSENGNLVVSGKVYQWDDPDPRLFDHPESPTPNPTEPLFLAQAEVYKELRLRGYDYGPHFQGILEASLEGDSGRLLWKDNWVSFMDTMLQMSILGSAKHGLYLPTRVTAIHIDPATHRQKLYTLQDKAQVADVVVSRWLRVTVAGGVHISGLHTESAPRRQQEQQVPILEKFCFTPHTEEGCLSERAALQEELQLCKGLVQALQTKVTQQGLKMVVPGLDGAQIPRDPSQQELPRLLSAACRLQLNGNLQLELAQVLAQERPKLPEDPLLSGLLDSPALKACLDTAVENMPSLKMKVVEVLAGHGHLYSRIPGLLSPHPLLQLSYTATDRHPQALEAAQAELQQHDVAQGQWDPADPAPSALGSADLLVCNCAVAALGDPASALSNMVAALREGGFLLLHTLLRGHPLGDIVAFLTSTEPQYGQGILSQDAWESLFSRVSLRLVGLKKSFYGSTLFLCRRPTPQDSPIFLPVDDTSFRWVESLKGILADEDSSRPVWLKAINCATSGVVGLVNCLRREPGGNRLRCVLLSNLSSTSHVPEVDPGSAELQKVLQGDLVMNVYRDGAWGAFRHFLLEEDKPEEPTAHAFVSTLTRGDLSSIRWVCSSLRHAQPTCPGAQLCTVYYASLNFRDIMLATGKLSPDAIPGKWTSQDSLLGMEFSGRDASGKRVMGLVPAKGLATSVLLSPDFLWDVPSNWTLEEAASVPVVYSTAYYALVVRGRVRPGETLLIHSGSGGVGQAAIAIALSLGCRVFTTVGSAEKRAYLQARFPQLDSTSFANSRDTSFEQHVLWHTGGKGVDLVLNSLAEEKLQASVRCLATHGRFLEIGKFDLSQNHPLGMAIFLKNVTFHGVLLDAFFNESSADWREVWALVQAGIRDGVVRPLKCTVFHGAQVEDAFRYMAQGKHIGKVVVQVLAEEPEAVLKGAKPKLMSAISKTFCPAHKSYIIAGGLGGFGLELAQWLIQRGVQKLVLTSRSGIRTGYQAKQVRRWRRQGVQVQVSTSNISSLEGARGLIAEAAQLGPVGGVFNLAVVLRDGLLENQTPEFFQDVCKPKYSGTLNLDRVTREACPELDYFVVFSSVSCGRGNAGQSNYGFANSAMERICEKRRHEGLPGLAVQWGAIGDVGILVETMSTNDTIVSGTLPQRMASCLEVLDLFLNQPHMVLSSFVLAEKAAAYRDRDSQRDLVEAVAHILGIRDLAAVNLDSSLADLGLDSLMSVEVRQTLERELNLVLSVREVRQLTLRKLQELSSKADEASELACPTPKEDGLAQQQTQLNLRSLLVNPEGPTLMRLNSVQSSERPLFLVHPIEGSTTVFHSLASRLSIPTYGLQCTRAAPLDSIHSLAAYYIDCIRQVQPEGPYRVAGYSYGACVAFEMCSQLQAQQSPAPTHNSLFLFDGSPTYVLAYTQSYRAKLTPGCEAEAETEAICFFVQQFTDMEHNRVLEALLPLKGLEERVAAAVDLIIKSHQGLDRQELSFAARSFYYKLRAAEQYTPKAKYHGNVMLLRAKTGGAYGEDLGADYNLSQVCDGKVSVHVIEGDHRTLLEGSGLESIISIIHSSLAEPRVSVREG

## O=C(/C=C/c1cccc([N+](=O)[O-])c1)NCCSCc1ccc(Cl)cc1
[1]
  IC50: 10.2 µM (active)
[2]
  IC50: 11.6 µM (active)

## COc1cc(/C=C2/SC(NS(=O)(=O)Cc3ccccc3)=NC2=O)c([N+](=O)[O-])cc1OC
[3]
  IC50: 76.1 µM (active)

## COc1ccc2c3c([nH]c2c1)[C@H](CO)N(Cc1cc(F)ccc1F)CC31CCN(C(C)=O)CC1
[4]
  AC50: 3.39 µM (active)

## Cc1cc(NC(=O)CSc2nc3sc4c(c3c(=O)n2C)CCCC4)no1
[5]
  IC50: 25.2 µM (not active)

## CC(C)(C)c1ccc(OCCC(=O)OCC(=O)N2c3ccccc3NC(=O)C2(C)C)cc1
[1]
  IC50: 11.2 µM (active)
[2]
  IC50: 4.48 µM (active)

## N#C/C(=C\c1cccs1)C(=O)c1ccccc1
[3]
  IC50: > 100 µM (active)

## C[C@@H]1CCCCO[C@@H](CN(C)C(=O)Nc2ccc(C(F)(F)F)cc2)[C@@H](C)CN([C@H](C)CO)C(=O)c2cc(NC(=O)Nc3ccc(C(F)(F)F)cc3)ccc2O1
[6]
  AC50: 3.39 µM (active)

## Cc1onc(-c2c(F)cccc2Cl)c1C(=O)NC(=S)NC1CCSC1=O (stereo not drawn)
[7]
  IC50: > 66 µM (inactive)
[8]
  IC50: > 66 µM (inactive)

## CC(NC(=O)Cn1cc([N+](=O)[O-])cn1)c1ccc(C(C)(C)C)cc1 (stereo not drawn)
[1]
  IC50: 4.06 µM (active)
[2]
  IC50: 4.54 µM (active)

## COc1ccc(C2=NN(C(=O)CSc3nc(=O)n4ccc(C)cc4n3)C(c3ccc(C)cc3)C2)cc1 (stereo not drawn)
[1]
  IC50: 9.17 µM (active)
[2]
  IC50: 8.93 µM (active)

## COCCNC(=O)c1c(NC(=O)c2ccco2)n(Cc2ccccc2)c2nc3ccccc3nc12
[3]
  IC50: > 100 µM (active)
[9]
  EC50: 12.8 µM (active)
[10]
  EC50: > 150 µM (not active)
[11]
  EC50: > 150 µM (not active)

## COc1ccc2c3c([nH]c2c1)[C@@H](CO)N(Cc1ccccc1F)CC31CN(C(=O)C2CCCC2)C1
[4]
  AC50: 6.64 µM (active)

## Cc1c(N2C(=O)/C(=C3\C(=O)N(CC(=O)O)c4ccccc43)SC2=S)c(=O)n(-c2ccccc2)n1C
[7]
  IC50: > 66 µM (inactive)
[8]
  IC50: > 66 µM (inactive)

## O=C1NC(=S)N(c2ccccc2F)C(=O)/C1=C\c1cccs1
[3]
  IC50: 70.3 µM (active)
[12]
  IC50: 2.07 µM (active)

## COc1cccc(CNc2ccc(F)c([N+](=O)[O-])c2)c1O
[5]
  IC50: 7.78 µM (active)

## COC(=O)Nc1ccc(SCC(=O)c2cccc([N+](=O)[O-])c2)cc1
[7]
  IC50: > 66 µM (inactive)
[8]
  IC50: > 66 µM (inactive)

## C[C@@H]1CN([C@H](C)CO)C(=O)Cc2cc(NS(=O)(=O)c3ccc(F)cc3)ccc2O[C@H]1CN(C)Cc1ccc(C(=O)Nc2ccccc2N)cc1
[6]
  AC50: 3.17 µM (active)

## Cc1cc2c(C)ccc(C)c2nc1SCC(=O)c1cccs1
[5]
  IC50: < 0.4 µM (not active)

## C[C@@H]1CN([C@H](C)CO)C(=O)c2cc(NC(=O)Cc3cn(C)c4ccccc34)ccc2O[C@@H]1CN(C)C(=O)Nc1ccc(C(F)(F)F)cc1
[6]
  AC50: 3.26 µM (active)

## C[C@H]1CN([C@@H](C)CO)C(=O)c2cc(N(C)C)ccc2O[C@@H]1CN(C)C(=O)Nc1ccc(C(F)(F)F)cc1
[6]
  AC50: 5.64 µM (active)

## CC[C@@H](C)[C@@H]1CN([C@@H](CN2CCC[C@H]2CN2C(N)=NC[C@H]2C(C)C)C(C)C)C(=N)N1CCCC1CCCC1
[13]
  IC50: > 20 µM (inactive)

## Cc1c(C(=O)NC(=S)Nc2ccc3c4c(cccc24)CC3)cccc1[N+](=O)[O-]
[7]
  IC50: > 66 µM (inactive)
[8]
  IC50: > 66 µM (inactive)

## COc1ccc2c3c(n(C)c2c1)[C@H](CO)N(C(=O)Nc1cccc(F)c1)CC31CN(C)C1
[4]
  AC50: 5.83 µM (active)

## CCCNC(=O)N1CC(=O)N2[C@@H](CO)[C@@H](c3ccc(C#Cc4cccc(OC)c4)cc3)[C@@H]2C1
[4]
  AC50: 17 µM (active)

## O=C1c2cccc3cccc(c23)C(=O)N1CCCN1CCN(c2ccc(F)cc2)CC1
[5]
  IC50: 8.84 µM (not active)

## CO[C@H]1CN(C)C(=O)c2ccc(NC(=O)c3nc4ccccc4s3)cc2OC[C@H](C)N(Cc2ccncc2)C[C@@H]1C
[4]
  AC50: 5.3 µM (active)

## CCCCn1c(S)nnc1-c1csc(CCC)c1
[5]
  IC50: 24.1 µM (not active)

## COc1ccccc1C(=O)COC(=O)c1cc([N+](=O)[O-])ccc1N1CCOCC1
[1]
  IC50: 5.96 µM (active)
[2]
  IC50: 6.45 µM (active)

## CCO[C@H]1OC(C(=O)NCc2ccccc2)=C[C@@H](C2CCCCC2)[C@@H]1CCCO
[1]
  IC50: 7.45 µM (active)
[2]
  IC50: 11.5 µM (active)

## O=C(c1nc2ccccn2c1CN1CCCC(O)C1)N1CCN(C2CCCCC2)CC1 (stereo not drawn)
[7]
  IC50: > 66 µM (inactive)
[8]
  IC50: > 66 µM (inactive)

## Cc1ccc2c(c1)C(c1ccccc1)N(C(=O)c1cccc([N+](=O)[O-])c1)CC(=O)N2 (stereo not drawn)
[1]
  IC50: 2.57 µM (active)
[2]
  IC50: 2.53 µM (active)

## C[C@@H]1CN([C@@H](C)CO)C(=O)c2cccc(NC(=O)CCCCCC(=O)Nc3ccccc3N)c2O[C@@H]1CN(C)S(=O)(=O)c1ccc(Cl)cc1
[6]
  AC50: 3.26 µM (active)

## COC(=O)C1=C(C)N(CC2CC2)C(NCc2cccc(C(F)(F)F)c2)=N[C@H]1c1ccccc1
[13]
  IC50: > 20 µM (inactive)

## O=C(O)c1ccccc1SC1CC(=O)N(c2ccc3c(c2)OCO3)C1=O (stereo not drawn)
[7]
  IC50: > 66 µM (inactive)
[8]
  IC50: > 66 µM (inactive)

## COc1ccc(NC(=O)C2(C)CCN2Cc2ccccc2OC(F)F)cc1OC (stereo not drawn)
[14]
  AC50: 55.5 µM (active)

## CCC[C@@H](CN1CCC[C@H]1CN1C(N)=NC[C@H]1C(C)C)N1C[C@@H]([C@H](C)CC)N(CCCC2CCCC2)C1=N
[13]
  IC50: > 20 µM (inactive)

## CCOCCCn1c(=N)c(S(=O)(=O)c2ccc(C)cc2)cc2c(=O)n3cc(C)ccc3nc21
[7]
  IC50: 53.1 µM (inactive)
[8]
  IC50: > 66 µM (inactive)

## COc1ccccc1/C=C(\NC(=O)c1ccc(OC)c(OC)c1)C(=O)Nc1cc([N+](=O)[O-])ccc1C
[15]
  EC50: 43.6 µM (active)
[1]
  IC50: 2.16 µM (active)
[16]
  EC50: 44.4 µM (active)
[2]
  IC50: 3.48 µM (active)

## COc1cccc(NC(C)C(=O)Nc2cc([N+](=O)[O-])ccc2Cl)c1 (stereo not drawn)
[1]
  IC50: 9.92 µM (active)
[2]
  IC50: 12.4 µM (active)

## Oc1nncc(N/N=C\c2cccs2)c1Cl
[17]
  IC50: > 29.9 µM (inactive)
[18]
  EC50: > 29.9 µM (inactive)

## COc1ccccc1N1CCN(C(=O)[C@H](C)NS(=O)(=O)c2ccc3c(c2)OCCCO3)CC1
[7]
  IC50: > 66 µM (inactive)
[8]
  IC50: > 66 µM (inactive)

## C[C@@H]1CN([C@H](C)CO)C(=O)c2c(c3ccccc3n2C)-c2ccccc2CO[C@H]1CN(C)Cc1ccc(Oc2ccccc2)cc1
[4]
  AC50: 3.03 µM (active)

## C[C@@H]1CN([C@H](C)CO)C(=O)Cc2cc(NC(=O)Nc3cccc4ccccc34)ccc2O[C@@H]1CN(C)Cc1ccc(Cl)c(Cl)c1
[6]
  AC50: 2.53 µM (active)

## C[C@H]1CN([C@@H](C)CO)C(=O)c2cccc(NC(=O)NC3CCCCC3)c2O[C@H]1CN(C)Cc1ccc(C(=O)Nc2ccccc2N)cc1
[6]
  AC50: 2.74 µM (active)
